Data from patent publication US11345712B2, “Protein-targeting compounds and pharmaceutical compositions thereof, and their therapeutic applications” (BioTheryX, Inc., priority 2019, dated 2022).

test system: MOLM-13 cells; experiment: MOLM-13 cell viability assay (CellTiter-Glo); assay type: cell-based; details: Homo sapiens, MOLM-13, 72 h, 3 days, concentration of 1 μM, read-out: Antiproliferative Activity (inhibition, MOLM-13 cell viability)
Experimental: MOLM-13 cells were cultured in RPMI 1640 media supplemented with 10% fetal bovine serum, streptomycin, and penicillin. The cells were plated in white walled 96-well plates at 2,500 cells/well. The cells were incubated in DMSO (control) or an indicated compound for 3 days at 37° C. and 5% CO2. Following the incubation period, 100 μL of CELLTITER-GLO® (CTG) reagent was added to each well. Following a 10 minutes incubation with shaking, luminescence was measured using an ENVISION® Multimode plate reader.

`CN(C)c1cc(NC(=O)NCc2cc3c(s2)C(=O)N(C2CCC(=O)NC2=O)C3)ccc1C(F)(F)F` (centres unmarked) [II-55, 1-(3-(dimethylamino)-4-(trifluoromethyl)phenyl)-3-((5-(2,6-dioxopiperidin-3-yl)-6-oxo-5,6-dihydro-4H-thieno[2,3-c]pyrrol-2-yl)methyl)urea] and `COc1cc(NC(=O)NCc2cc3c(s2)C(=O)N(C2CCC(=O)NC2=O)C3)ccc1C` (centres unmarked) [II-58, 1-((5-(2,6-dioxopiperidin-3-yl)-6-oxo-5,6-dihydro-4H-thieno[2,3-c]pyrrol-2-yl)methyl)-3-(3-methoxy-4-methylphenyl)urea] cannot be ordered by cytotoxicity at 1 µM: > 80% for the first, > 80% for the second.

Going from `CC(C)(C)c1ccc(C(=O)C(=O)NCc2scc3c2C(=O)N(C2CCC(=O)NC2=O)C3=O)cc1` (centres unmarked) [Compound I-13, 2-(4-(tert-butyl)phenyl)-N-((5-(2,6-dioxopiperidin-3-yl)-4,6-dioxo-5,6-dihydro-4H-thieno[3,4-c]pyrrol-1-yl)methyl)-2-oxoacetamide] to `CC(C)(C)c1ccc(C(=O)C(=O)NCc2ccc3c(c2)C(=O)N(C2CCC(=O)NC2=O)C3=O)cc1` (centres unmarked) [Compound I-32, 2-(4-(tert-butyl)phenyl)-N-((2-(2,6-dioxopiperidin-3-yl)-1,3-dioxoisoindolin-5-yl)methyl)-2-oxoacetamide], the cytotoxicity at 1 µM rises from < 25% to > 80%.

`CC(CCc1ccc(C(C)(C)C)cc1)C(=O)NCc1scc2c1CN(C1CCC(=O)NC1=O)C2=O` (centres unmarked) [II-86, 4-(4-(tert-butyl)phenyl)-N-((5-(2,6-dioxopiperidin-3-yl)-4-oxo-5,6-dihydro-4H-thieno[3,4-c]pyrrol-1-yl)methyl)-2-methylbutanamide] and `O=C(Cc1ccc(F)cc1)NCc1scc2c1CN(C1CCC(=O)NC1=O)C2=O` (centres unmarked) [II-25, N-((5-(2,6-dioxopiperidin-3-yl)-4-oxo-5,6-dihydro-4H-thieno[3,4-c]pyrrol-1-yl)methyl)-2-(4-fluorophenyl)acetamide] cannot be ordered by cytotoxicity at 1 µM: < 25% for the first, < 25% for the second.

`CCN(CC)c1cccc(NC(=O)NCc2cc3c(s2)C(=O)N(C2CCC(=O)NC2=O)C3)c1` (centres unmarked) [II-71, 1-(3-(diethylamino)phenyl)-3-((5-(2,6-dioxopiperidin-3-yl)-6-oxo-5,6-dihydro-4H-thieno[2,3-c]pyrrol-2-yl)methyl)urea] and `CC(C)c1cccc(NC(=O)NCc2cc3c(s2)C(=O)N(C2CCC(=O)NC2=O)C3)c1` (centres unmarked) [II-70, 1-((5-(2,6-dioxopiperidin-3-yl)-6-oxo-5,6-dihydro-4H-thieno[2,3-c]pyrrol-2-yl)methyl)-3-(3-isopropylphenyl)urea] cannot be ordered by cytotoxicity at 1 µM: > 80% for the first, > 80% for the second.

`CC(C)(C)c1ccc(C(=O)C(=O)NCc2c(F)ccc3c2CN(C2CCC(=O)NC2=O)C3=O)cc1` (centres unmarked) [Compound I-50, 2-(4-(tert-butyl)phenyl)-N-((2-(2,6-dioxopiperidin-3-yl)-5-fluoro-1-oxoisoindolin-4-yl)methyl)-2-oxoacetamide] and `O=C1CCC(N2Cc3c(csc3CNC(=O)C(=O)c3ccc(Cl)cc3)C2=O)C(=O)N1` (centres unmarked) [Compound I-18, 2-(4-chlorophenyl)-N-((5-(2,6-dioxopiperidin-3-yl)-4-oxo-5,6-dihydro-4H-thieno[3,4-c]pyrrol-1-yl)methyl)-2-oxoacetamide] cannot be ordered by cytotoxicity at 1 µM: < 25% for the first, < 25% for the second.

First: O=C1CCC(N2Cc3cc(CNC(=O)C(=O)c4ccncc4)ccc3C2=O)C(=O)N1 (centres unmarked) [Compound I-103, N-((2-(2,6-dioxopiperidin-3-yl)-1-oxoisoindolin-5-yl)methyl)-2-oxo-2-(pyridin-4-yl)acetamide]
Second: Cc1cc(C)c(C(=O)C(=O)NCc2ccc3c(c2)CN(C2CCC(=O)NC2=O)C3=O)c(C)c1 (centres unmarked) [Compound I-85, N-((2-(2,6-dioxopiperidin-3-yl)-1-oxoisoindolin-5-yl)methyl)-2-oxo-2-(2,4,6-trimethylphenyl)acetamide]
The cytotoxicity at 1 µM of the first is lower: < 25% for the first, 50 to 80% for the second.

`O=C1CCC(N2Cc3cc(CNC(=O)Nc4c(Cl)cccc4Cl)sc3C2=O)C(=O)N1` (centres unmarked) [II-42, 1-(2,6-dichlorophenyl)-3-((5-(2,6-dioxopiperidin-3-yl)-6-oxo-5,6-dihydro-4H-thieno[2,3-c]pyrrol-2-yl)methyl)urea] and `Cc1ccc(C=CC(=O)NCc2cc3c(s2)C(=O)N(C2CCC(=O)NC2=O)C3)cc1Cl` (centres unmarked) [II-33, 3-(3-chloro-4-methylphenyl)-N-((5-(2,6-dioxopiperidin-3-yl)-6-oxo-5,6-dihydro-4H-thieno[2,3-c]pyrrol-2-yl)methyl)propenamide] cannot be ordered by cytotoxicity at 1 µM: < 25% for the first, < 25% for the second.

`O=C1CCC(N2C(=O)c3cccc(CNC(=O)C(=O)c4ccc(C5(C(F)(F)F)CC5)cc4)c3C2=O)C(=O)N1` (centres unmarked) [Compound I-58, N-((2-(2,6-dioxopiperidin-3-yl)-1,3-dioxoisoindolin-4-yl)methyl)-2-oxo-2-(4-(1-(trifluoromethyl)cyclopropyl)phenyl)acetamide] and `CC1(c2ccc(C(=O)C(=O)NCc3scc4c3CN(C3CCC(=O)NC3=O)C4=O)cc2)CC1` (centres unmarked) [Compound I-42, N-((5-(2,6-dioxopiperidin-3-yl)-4-oxo-5,6-dihydro-4H-thieno[3,4-c]pyrrol-1-yl)methyl)-2-(4-(1-methylcyclopropyl)phenyl)-2-oxoacetamide] fall in the same range of cytotoxicity at 1 µM: 50 to 80% for the first, 50 to 80% for the second.

First: O=C1CCC(N2Cc3cc(CNC(=O)C(F)(F)c4ccc(C5(C(F)(F)F)CC5)cc4)ccc3C2=O)C(=O)N1 (centres unmarked) [II-164, N-((2-(2,6-dioxopiperidin-3-yl)-1-oxoisoindolin-5-yl)methyl)-2,2-difluoro-2-(4-(1-(trifluoromethyl)cyclopropyl)phenyl)acetamide]
Second: Cc1ccc(CCC(C)(C)C(=O)NCc2scc3c2CN([C@H]2CCC(=O)NC2=O)C3=O)cc1Cl [II-104, (S)-4-(3-chloro-4-methylphenyl)-N-((5-(2,6-dioxopiperidin-3-yl)-4-oxo-5,6-dihydro-4H-thieno[3,4-c]pyrrol-1-yl)methyl)-2,2-dimethylbutanamide]
The cytotoxicity at 1 µM of the first is higher: > 80% for the first, < 25% for the second.

Going from `O=C1CCC(N2Cc3c(csc3CNC(=S)Nc3c(Cl)c(Cl)cc(Cl)c3Cl)C2=O)C(=O)N1` (centres unmarked) [II-123, 1-((5-(2,6-dioxopiperidin-3-yl)-4-oxo-5,6-dihydro-4H-thieno[3,4-c]pyrrol-1-yl)methyl)-3-(2,3,5,6-tetrachlorophenyl)thiourea] to `COc1ccc(CC(=O)NCc2scc3c2CN(C2CCC(=O)NC2=O)C3=O)cc1C(C)C` (centres unmarked) [II-63, N-((5-(2,6-dioxopiperidin-3-yl)-4-oxo-5,6-dihydro-4H-thieno[3,4-c]pyrrol-1-yl)methyl)-2-(3-isopropyl-4-methoxyphenyl)acetamide], the cytotoxicity at 1 µM rises from < 25% to > 80%.

`CC(C)(C)C1CCN(C(=O)C(=O)NCc2cccc3c2CN(C2CCC(=O)NC2=O)C3=O)CC1` (centres unmarked) [Compound I-61, 2-(4-(tert-butyl)piperidin-1-yl)-N-((2-(2,6-dioxopiperidin-3-yl)-1-oxoisoindolin-4-yl)methyl)-2-oxoacetamide] and `Cc1cc(C)c(C(=O)C(=O)NCc2cccc3c2CN(C2CCC(=O)NC2=O)C3=O)c(C)c1` (centres unmarked) [Compound I-80, 2-(2,4,6-trimethylphenyl)-N-((2-(2,6-dioxopiperidin-3-yl)-1-oxoisoindolin-4-yl)methyl)-2-oxoacetamide] cannot be ordered by cytotoxicity at 1 µM: < 25% for the first, < 25% for the second.

`Cc1ccc(NC(=O)NCc2cc3c(s2)C(=O)N(C2CCC(=O)N(COC(=O)[C@H](N)C(C)C)C2=O)C3)cc1Cl` (stereo partly drawn) [II-82, (3-(2-((3-(3-chloro-4-methylphenyl)ureido)methyl)-6-oxo-4,6-dihydro-5H-thieno[2,3-c]pyrrol-5-yl)-2,6-dioxopiperidin-1-yl)methyl D-valinate] was tested, and the cytotoxicity at 1 µM was > 80%.
